Laboratory results published in patent US20210123066A1, “METHODS OF REGENERATION AND TRANSFORMATION OF STEVIA PLANT AND TRANSGENIC STEVIA PLANTS HAVING ENHANCED STEVIOL GLYCOSIDES CONTENT” (TEMASEK LIFE SCIENCES LABORATORY LIMITED, priority 2018, published 2021).

System: SrUGT76G1
Test: In vitro UDP-glucosyltransferase activity assay with GST-SrUGT76G1
Format: biochemical, Stevia rebaudiana
Details: for product formed by GST-SrUGT76G1 from the acceptor (TLC): 50 μM substrate, UDP-glucose donor, 30° C., 2 h; for product formed by GST-UGT76G1 from the acceptor (HPLC): 5 mM UDP-glucose, 16 h
Procedure: Expression of recombinant UGT76G1 and UDP-glucosyltransferase activity assay: The full-length cDNA of SrUGT76G1 was cloned into pDEST15 to obtain GST-tag fused protein. The resulting expression vector was transformed into E. Coli BL21 (DE3)-derived Rosetta strain (Novagen) and grown under appropriate antibiotics. GST-tagged SrUGT76G1 recombinant protein was purified by glutathione agarose beads (ThermoFisher Scientific). About 1 μg of recombinant protein was used for enzyme assay with 50 μM of the substrate (dulcoside A or Reb A) in an assay buffer (50 mM HEPES, pH 7.5, 3 mM MgCl2, 10 μg/ml Bovine Serum Albumin). To initiate the reaction, a 1 mM UDP-glucose mixture (997.5 μM UDP-glucose and […] UDP-[^14C]-glucose, 2.78 kBq, Amersham Biosciences) was added. In vitro glucosyltransferase activity assays were performed as described by Richman et al. (2005). The assay was carried out at 30° C. for 2 h and extracted twice with 100 μl of water-saturated 1-butanol. Pooled fractions were dried in a vacuum centrifuge and resuspended in 10 μl water-saturated 1-butanol for thin layer chromatography (TLC) analysis. The TLC was performed with 10 μl of reaction products using chloroform:methanol:water (15:10:2 v/v/v) as the mobile phase on a silica gel-coated TLC plate (Fluka) in a mobile phase saturated glass chamber. SGs standards were run under the same condition. After air-drying, the image on the TLC plate was captured on a storage phosphor screen in a phosphorimager cassette (Bio-Rad) for 2-3 d and visualized on a Typhoon 9200 imager (Amersham Biosciences).
HPLC analysis of in vitro glucosyltransferase activity assay mixture: In vitro glucosyltransferase activity assay was performed as indicated in the TLC analysis, but 5 mM of UDP-glucose was used without UDP-[^14C]-glucose and the incubation time was increased to 16 h. Samples were extracted 3 times with water-saturated 1-butanol and dried completely in a vacuum centrifuge. Dried samples were dissolved in MeOH for UHPLC analysis in accordance with the method mentioned for SGs content analysis.

SMILES | product formed by GST-SrUGT76G1 from the acceptor (TLC) | product formed by GST-UGT76G1 from the acceptor (HPLC)
C=C1C[C@@]23CC[C@H]4[C@@](C)(CCC[C@@]4(C)C(=O)O[C@@H]4O[C@H](CO)[C@@H](O)[C@H](O)[C@H]4O)[C@@H]2CC[C@]1(O[C@@H]1O[C@H](CO)[C@@H](O)[C@H](O)[C@H]1O[C@@H]1O[C@@H](C)[C@H](O)[C@@H](O)[C@H]1O)C3 [dulcoside A] | Reb C | Reb C
C=C1C[C@@]23CC[C@H]4[C@@](C)(CCC[C@@]4(C)C(=O)O[C@@H]4O[C@H](CO)[C@@H](O)[C@H](O)[C@H]4O)[C@@H]2CC[C@]1(O[C@@H]1O[C@H](CO)[C@@H](O)[C@H](O[C@@H]2O[C@H](CO)[C@@H](O)[C@H](O)[C@H]2O)[C@H]1O[C@@H]1O[C@H](CO)[C@@H](O)[C@H](O)[C@H]1O)C3 [Reb A, rebaudioside A] |  | Reb I
C=C1C[C@@]23CC[C@H]4[C@@](C)(CCC[C@@]4(C)C(=O)O[C@@H]4O[C@H](CO)[C@@H](O)[C@H](O)[C@H]4O)[C@@H]2CC[C@]1(O[C@@H]1O[C@H](CO)[C@@H](O)[C@H](O)[C@H]1O[C@@H]1O[C@H](CO)[C@@H](O)[C@H](O)[C@H]1O)C3 [stevioside] | Reb A | Reb A
